Molecules are shown by their SMILES.

Chain of mAChR M1 (P11229 whole entry, looked up): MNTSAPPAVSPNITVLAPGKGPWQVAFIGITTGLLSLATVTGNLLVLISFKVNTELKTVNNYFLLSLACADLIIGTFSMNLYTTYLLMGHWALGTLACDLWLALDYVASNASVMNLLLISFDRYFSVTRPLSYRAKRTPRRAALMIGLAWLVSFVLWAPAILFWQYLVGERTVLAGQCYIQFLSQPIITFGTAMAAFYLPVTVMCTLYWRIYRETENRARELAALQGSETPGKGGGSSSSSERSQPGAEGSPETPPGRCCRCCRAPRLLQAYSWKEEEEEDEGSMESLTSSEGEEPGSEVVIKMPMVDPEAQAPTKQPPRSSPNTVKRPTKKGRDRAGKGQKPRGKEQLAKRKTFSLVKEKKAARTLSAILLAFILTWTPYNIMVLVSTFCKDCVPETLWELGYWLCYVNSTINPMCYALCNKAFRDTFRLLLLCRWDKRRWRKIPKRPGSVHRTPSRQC

The assay has as its target mAChR M1 (Homo sapiens, UniProt P11229). The experiment in a line: In vitro cellular calcium flux assay, positive allosteric modulation of mAChR M1. The format is cell-based. Particulars: BHK cells expressing mAChR M1; EC20 carbachol; Examples 76-80 and 82-89 slightly modified procedure. As to the method: Baby hamster kidney cells stably expressing human or rat mAChR M1 to M5 were utilised for primary and selectivity profiling activities. mAChR M2 and M4 cell lines also stably expressed the chimeric Gαqi5 G-protein.
Human mAChR M1, M3, M5 and rat M1 cells were grown in low glucose Dulbecco's Modified Eagle's Medium (DMEM) medium plus heat inactivated 10% fetal bovine serum (HI FBS) and 500 μg/ml hygromycin B^1. Human mAChR M2 and M4 cells were maintained as above with^2 the addition of 500 μg/ml G418 to the media. Cells were maintained in culture at 37° C./5% CO2 and passaged twice weekly by treatment with 0.05% Trypsin/EDTA detachment solution, centrifugation (200 g, 5 min) and re-suspension in fresh media. Following cell expansion, cells were cryopreserved at −80° C. by treatment with 0.05% Trypsin/EDTA detachment solution, centrifugation (200 g, 5 min) and re-suspension of the pellet in freezing media (90% HI FBS/10% DMSO^3) at 15E6 cells/ml^4.
Prior to assaying, cells were prepared by thawing at 37° C. in a water bath, centrifugation (200 g, 5 min) and re-suspension of the pellet in fresh media. 15000 cells per well were seeded in black, clear bottomed 384-well Greiner Bio-One plates in plating medium (DMEM/10% HI FBS) and incubated overnight at 37 C/5% CO2.
On the day of the assay, media was removed from each well and replaced with 50 μl^5 assay buffer (HBSS with 20 mM HEPES and 2.5 mM Probenecid) containing the calcium indicator, Calcium 4 (Molecular Devices). Cells were then incubated at 37° C./5% CO2 for 30 min and at room temperature.
Compound preparation was carried out by generation of 11-point, 1 in 3 serial dilution concentration response curves in 100% DMSO. Compound was then diluted 1 in 65^6 with assay buffer (HBSS with 20 mM HEPES and 2.5 mM Probenecid) prior to the addition of 10 ul^7 to the cells using a Tetra fluorometric imaging plate reader (Molecular Devices)^8. Compound driven increases in intracellular calcium flux was measured as an increase in fluorescence (494Ex, 516Em)^9.
Positive allosteric modulator pEC50 values and antagonist pIC50 values for each compound were then determined. […] The points of modification and the alternate reagents, concentrations or equipment employed in these examples were: ^1200 μg/ml hygromycin B; ^2G418 not added; ^3CELLBANKER 1; ^410E6; ^5 40 μl; ^6 1 in 99; ^7 20 μl; ^8FDSS6000 (Hamamatsu Photonics); ^9(480Ex, 540Em); ^10Spotfire (TIBCO).
A general note: Calcium assays in cells follow changes in intracellular calcium, usually with a dye or a luminescent sensor.
`Cn1cc(-c2ccc(Cn3cc(C(=O)N[C@H]4CCCC[C@@H]4O)c4ncccc43)cc2)cn1` [Example 57, N-((1S,2S)-2-Hydroxycyclohexyl)-1-(4-(1-methyl-1H-pyrazol-4-yl)benzyl)-1H-pyrrolo[3,2-b]pyridine-3-carboxamide]: the “pEC50 for positive allosteric modulation” value turned out to be 7.6.
With `Cc1cccc(-c2ccc(Cn3cc(C(=O)N[C@H]4CCCC[C@@H]4O)c4ncccc43)c(F)c2)n1` [Example 44, 1-(2-Fluoro-4-(6-methylpyridin-2-yl)benzyl)-N-((1S,2S)-2-hydroxycyclohexyl)-1H-pyrrolo[3,2-b]pyridine-3-carboxamide], the “pEC50 for positive allosteric modulation” value was determined as 6.9.
Then `Cc1ccnc2c(C(=O)N[C@H]3CCCC[C@@H]3O)cn(Cc3cc(F)ccc3F)c12` [Example 98, 1-(2,5-difluorobenzyl)-N-((1S,2S)-2-hydroxycyclohexyl)-7-methyl-1H-pyrrolo[3,2-b]pyridine-3-carboxamide], with 7.0; and `O=C(N[C@H]1CCCC[C@@H]1O)c1cn(Cc2ccc(F)cn2)c2c(Cl)ccnc12` [Example 17, 7-Chloro-1-((5-fluoropyridin-2-yl)methyl)-N-((1S,2S)-2-hydroxycyclohexyl)-1H-pyrrolo[3,2-b]pyridine-3-carboxamide], with 6.9.
Consider `Cc1ccnc2c(C(=O)N[C@H]3CCCC[C@@H]3O)cn(Cc3ccc(Cl)cc3)c12` [Example 60, 1-(4-Chlorobenzyl)-N-((1S,2S)-2-hydroxycyclohexyl)-7-methyl-1H-pyrrolo[3,2-b]pyridine-3-carboxamide], for which the “pEC50 for positive allosteric modulation” value is recorded as 7.8.
With `COc1ccc(Cn2cc(C(=O)N[C@H]3CCCC[C@@H]3O)c3nccc(C)c32)cc1C` [Example 66, N-((1S,2S)-2-Hydroxycyclohexyl)-1-(4-methoxy-3-methylbenzyl)-7-methyl-1H-pyrrolo[3,2-b]pyridine-3-carboxamide], the “pEC50 for positive allosteric modulation” value turned out to be 7.9.
Consider `Cc1ccc2c(n1)c(C(=O)N[C@H]1CCCC[C@@H]1O)cn2Cc1ccc(-n2cccn2)cc1` [Example 40, 1-(4-(1H-Pyrazol-1-yl)benzyl)-N-((1S,2S)-2-hydroxycyclohexyl)-5-methyl-1H-pyrrolo[3,2-b]pyridine-3-carboxamide], for which the “pEC50 for positive allosteric modulation” value came to 6.5.
`Cc1ccc(Cn2cc(C(=O)N[C@H]3CCCC[C@@H]3O)c3ncccc32)cc1` [Example 1, N-((1S,2S)-2-hydroxycyclohexyl)-1-(4-methylbenzyl)-1H-pyrrolo[3,2-b]pyridine-3-carboxamide]: the “pEC50 for positive allosteric modulation” value is 7.0.
`Cc1cnc(Cn2cc(C(=O)N[C@H]3CCCC[C@@H]3O)c3nccc(Cl)c32)s1` [Example 75, 7-Chloro-N-((1S,2S)-2-hydroxycyclohexyl)-1-((5-methylthiazol-2-yl)methyl)-1H-pyrrolo[3,2-b]pyridine-3-carboxamide]: the “pEC50 for positive allosteric modulation” value was determined as 6.6.
Regarding `COc1cc(Cn2cc(C(=O)N[C@H]3CCCC[C@@H]3O)c3ncccc32)ccc1F` [Example 91, 1-(4-fluoro-3-methoxybenzyl)-N-((1S,2S)-2-hydroxycyclohexyl)-1H-pyrrolo[3,2-b]pyridine-3-carboxamide], the “pEC50 for positive allosteric modulation” value turned out to be 6.3.
Consider `COc1ccc(Cn2cc(C(=O)N[C@H]3CCCC[C@@H]3O)c3ncccc32)c(F)c1` [Example 92, 1-(2-fluoro-4-methoxybenzyl)-N-((1S,2S)-2-hydroxycyclohexyl)-1H-pyrrolo[3,2-b]pyridine-3-carboxamide], for which the “pEC50 for positive allosteric modulation” value is listed as 6.4.
With `Cc1ccc(Cn2cc(C(=O)N[C@H]3CCCC[C@@H]3O)c3nccc(Cl)c32)nc1` [Example 61, 7-Chloro-N-((1S,2S)-2-hydroxycyclohexyl)-1-((5-methylpyridin-2-yl)methyl)-1H-pyrrolo[3,2-b]pyridine-3-carboxamide], the “pEC50 for positive allosteric modulation” value is on record as 7.0.
